Data published in PMC12645191, “Dicarboxylate and dicarboxylic acid appended supramolecular self-associating amphiphiles as antimicrobial agents against high priority bacterial pathogens” (Organic & Biomolecular Chemistry, 2025).
Several values for one entry are separate records, joined by “and”; a condition that tells them apart may be missing. Identical values can stand only once.

Columns and labels:
[1] = dynamic light scattering (DLS) of SSA aggregates; type: physicochemical; details: 5.6 mM, H2O 5.0% EtOH, 298 K; listed as 4
Method: Dynamic light scattering (DLS) and zeta potential measurements in H2O 5.0% EtOH were used to determine the hydrodynamic diameter (dH) and stability of the higher-order SSA aggregates detected by (Q) ^1H NMR spectroscopy at 5.6 mM, Table 1. […] However, we are unable to confidently report a dH for 1 due to the instability of this system, which is supported by a zeta potential value of −26 mV, obtained for this SSA under the same experimental conditions. […] Due to the instability of these systems in the absence of solvent, attempts to further characterise these systems through SEM or AFM are not possible.[48]

[2] = system: E. faecalis NCTC 775; assay: inhibition of bacterial growth, OD600 after 20 h; type: cell-based, Enterococcus faecalis; details: SSA 5.0 mM, 2.5% ethanol, negative = enhanced growth, listed as 4
Method: (§1) With the self-associative properties of 1–10 established, the antimicrobial activity of these SSAs were determined against a panel of clinically relevant, high-priority pathogens including: P. aeruginosa PAO1; Klebsiella pneumonia (K. pneumoniae) M6; E. coli NCTC 12923; Acinetobacter baumannii (A. baumannii) ATCC 17978; S. aureus ATCC 9144; Enterococcus faecalis (E. faecalis) NCTC 775; and Enterococcus faecium (E. faecium) NCTC 12204. […] However, it should be noted that the SSA stock solution was prepared in a H2O 5% EtOH solution, to ensure that the SSA aggregates formed were in line with those characterised within the scope of the SSA self-association studies.
(§2) Section 3: Biological methods
(§3) These methods were taken directly from UK Health and Security Office (UKHSA) standard […]
(§4) Preparation of Luria Broth media (LB): Yeast extract (5.0 g), tryptone (10.0 g) and sodium chloride (10.0 g) were dissolved in dH₂O (1.0 L) then divided into bottles and autoclaved.
(§5) Preparation of Luria Broth (LB) agar plates: Agar (6.0 g) was added to LB (400 mL) and autoclaved. Once cool, the LB agar was poured into sterile petri dishes under sterile conditions and allowed to set. LB plates were stored at 4 °C until use.
(§6) Preparation of bacterial plates: Sterile LB agar plates were streaked using streaked using the desired bacteria i) Pseudomonas aeruginosa (P.aeruginosa) PAO1, ii) Klebsiella pneumoniae (K. pneumoniae) M6 iii) E. coli NCTC 12923 and iv) Acinetobacter baumannii (A. baumannii) ATCC 17978 and Gram-positive i) Staphylococcus aureus (S. aureus) ATCC 9144 ii) Enterococcus faecalis (E. faecalis) NCTC 775 and iii) Enterococcus faecium (E. faecium ) NCTC 12204, then incubated at 37 °C overnight.
(§7) Preparation of Inoculum: An initial culture was made up by inoculating LB media (5 mL) with a single colony of bacteria under sterile conditions and incubated at 37 °C with shaking overnight. The following day, overnight bacterial cultures were subcultured into fresh LB medium to a starting OD600 of 0.01.
(§8) Preparation of 96 well microplate for MIC50: The 1:100 cell suspension (150 µL) was dispensed into individual wells under sterile conditions. SSAs (30 µL) were added to the wells to equal a total volume of 180 µL in the wells. Six repeats of each concentration for each SSA were created each plate. The plates were sealed using parafilm, then incubated at 37 °C in a microplate reader for 20 hours. OD600 endpoint data was used to generate growth curves. […]

[3] = tensiometry: critical aggregate concentration (CAC) and surface tension; type: physicochemical; details: listed as 4
Method: As the (Q) ^1H NMR spectroscopy experiments conducted at 5.6 mM in a D2O 5.0% EtOH solution confirmed the presence of higher-order self-associated structures with solid-like properties, concentration dependent surface tension measurements, obtained through tensiometry, were used to calculate critical aggregate concentration (CAC). Here the CAC is defined as the point at which an increase in SSA concentration no longer decreases surface tension but instead results in the formation of higher-order self-associated structures.

[4] = system: S. aureus ATCC 9144; assay: inhibition of bacterial growth, OD600 after 20 h; type: cell-based, Staphylococcus aureus; details: SSA 5.0 mM, 2.5% ethanol, negative = enhanced growth, listed as 4
Method: as §1, §2, §3, §4, §5, §6, §7, §8

[5] = system: E. coli NCTC 12923; assay: inhibition of bacterial growth, OD600 after 20 h; type: cell-based, Escherichia coli; details: SSA 5.0 mM, 2.5% ethanol, negative = enhanced growth, listed as 4
Method: as §1, §2, §3, §4, §5, §6, §7, §8

[6] = system: all Gram-positive bacteria tested; assay: inhibition of bacterial growth, span over the Gram-positive panel; type: cell-based, S. aureus, E. faecalis, E. faecium; details: SSA 5.0 mM, 20 hours; read-out: inhibition against all Gram-positive bacteria tested (span)
Method: as §1, §2, §3, §4
Preparation of Luria Broth (LB) agar plates: Agar (6.0 g) was added to LB (400 mL) and autoclaved. […]
Preparation of 96 well microplate for MIC50: The 1:100 cell suspension (150 µL) was dispensed into individual wells under sterile conditions. […] The plates were sealed using parafilm, then incubated at 37 °C in a microplate reader for 20 hours. […]

[7] = system: P. aeruginosa PAO1; assay: inhibition of bacterial growth, OD600 after 20 h; type: cell-based, Pseudomonas aeruginosa; details: SSA 5.0 mM, 2.5% ethanol, negative = enhanced growth, listed as 4
Method: as §1, §2, §3, §4, §5, §6, §7, §8

[8] = system: A. baumannii ATCC 17978; assay: inhibition of bacterial growth, OD600 after 20 h; type: cell-based, Acinetobacter baumannii; details: SSA 5.0 mM, 2.5% ethanol, negative = enhanced growth, listed as 4
Method: as §1, §2, §3, §4, §5, §6, §7, §8

[9] = quantitative (Q) 1H NMR spectroscopy, proportion of SSA becoming NMR silent (higher-order aggregates); type: physicochemical
Method: To confirm the presence of higher order self-associative structures quantitative (Q) ^1H NMR spectroscopy studies were undertaken at 5.6 mM in D2O 5% EtOH. Here the ^1H NMR resonances attributed to the EtOH are used as an internal standard.
Table S1 – Overview of results of the quantitative (Q) 1H NMR studies for 1, 3, 5, 7 and 9
5.0 % EtOH . Values given in % represent the observed proportion of the SSA that has become
Table S2 – Overview of results of the quantitative (Q) 1H NMR studies for 2, 4, 6, 8 and 10
5.0 % EtOH. Values given in % represent the observed proportion of anion and cation that has

[10] = system: E. faecium NCTC 12204; assay: inhibition of bacterial growth, OD600 after 20 h; type: cell-based, Enterococcus faecium; details: SSA 5.0 mM, 2.5% ethanol, negative = enhanced growth, listed as 4
Method: as §1, §2, §3, §4, §5, §6, §7, §8

[11] = system: K. pneumoniae M6; assay: inhibition of bacterial growth, OD600 after 20 h; type: cell-based, Klebsiella pneumoniae; details: SSA 5.0 mM, 2.5% ethanol, negative = enhanced growth, listed as 4
Method: as §1, §2, §3, §4, §5, §6, §7, §8

[12] = 5.6 mM, D2O 5.0% EtOH, 298 K, listed as 4

With `O=C(O)CC[C@@H](NC(=O)Nc1ccc(C(F)(F)F)cc1)C(=O)O` [SSA 4] the “DLS Peak 2 maxima” value [1] was 5118 nm, the “Polydispersity index (%)” value [1] was 27.4 (± 0.8) % and the “dH (DLS intensity distribution peak 1 maxima)” value [1] was 255 nm. For the same compound, the “Percentage inhibition of bacterial growth, NCTC 775 (E. faecalis)” value [2] was 98.82% and 99%, the CAC ([3]; H2O 5.0% EtOH, 298 K) was 22.26 mM and 22 mM and the “ST at CAC” value ([3]; H2O 5.0% EtOH, 298 K) was 38 mN m^−1. For the same compound, the “Surface tension at CAC” value ([3]; H2O/5.0 % EtOH) was 38.35 mN/m, the “Percentage inhibition of bacterial growth, ATCC 9144 (S. aureus)” value [4] was 98.85% and 99% and the “Percentage inhibition of bacterial growth, NCTC 12923 (E. coli)” value [5] was 39.02% and 39%. The inhibition at 5000 µM [6] was 99 to 100%, the “Percentage inhibition of bacterial growth, PAO1 (P. aeruginosa)” value [7] was 10.30% and 10% and the “Percentage inhibition of bacterial growth, ATCC 17978 (A. baumannii)” value [8] was -20.93% and −21%. For the same compound, the “(Q) 1H NMR spectroscopy, proportion NMR silent, acid or anion” value [9, 12] was 41%, the “(Q) 1H NMR spectroscopy, proportion NMR silent, cation” value [9, 12] was 43.2% and 43% and the “(Q) 1H NMR, proportion NMR silent, SSA acid or anion” value ([9]; ~112 mM, DMSO-d6 1.0% DCM) was 0%. The “(Q) 1H NMR, proportion NMR silent, cation” value ([9]; ~112 mM, DMSO-d6 1.0% DCM) was 0%, the “Percentage inhibition of bacterial growth, NCTC 12204 (E. faecium)” value [10] was 99.74% and 100% and the “Percentage inhibition of bacterial growth, M6 (K. pneumoniae)” value [11] was 19.93% and 20%.
